Experimental data from patent US8258186B2, “Pharmaceutical for oral delivery comprising MGBG” (Pathologica, LLC, priority 2009, dated 2012).

Assays:
[1] = system: carrageenan-induced paw edema and hyperalgesia; experiment: Carrageenan paw test for edema and hyperalgesia; assay type: in vivo, Swiss Webster mice
Source text: Injection of carrageenan subcutaneously into the hind foot (paw) of a rat or mouse induces robust inflammation and pain. The inflammatory response begins 1-2 hrs post-carrageenan injection and persists for at least five hours following inoculation. In addition, the animal's inflamed hind paw is sensitive to noxious (hyperaglesia) or innocuous (allodynia) stimuli, compared to the contralateral hind paw. Compounds can be evaluated in this model for anti-hyperalgesia and anti-inflammatory activity. […] It is possible that some compounds will affect the inflamed paw and not affect the responses of the contralateral paw.
Embodiments of the carrageenan foot edema test are performed with materials, reagents and procedures essentially as described by Winter, et al., (Proc. Soc. Exp. Biol. Med., 111, 544 (1962)). Prophylactic and therapeutic embodiments have been developed, and are known in the art. The animals are evaluated for their responsiveness to noxious (paw pinch, plantar test) or innocuous (cold plate, von Frey filaments) stimuli. In the following protocol, mice were used.
Animals, compounds, and dosing. Healthy young male Swiss Webster mice in which weight variation of the mice will not exceed ±20% of the mean were used for the study. […]
Paw Edema. Immediately before sub-plantar administration of carrageenan and after 2, 3, 5 and 24 hours post carrageenan, mouse paw volume was measured using the plethysmometer (Ugo Basile). The assessment of edema was expressed as the mean increase in paw volume relative to control.
Assessment of Paw Withdrawal Latency. Prior to sub-plantar administration of carrageenan and after 0.5, 2, 3, 5, and 24 hours post-carrageenan, the latency of withdrawal response was determined by placing mice on a hot plate analgesia meter with surface temperature maintained at 51° C. […] Paw withdrawal latency is calculated as Δt=right paw withdrawal−left paw withdrawal. […]

[2] = Multi-dose rat pharmacokinetic and tolerability study; assay type: in vivo, Sprague Dawley rats; conditions: for AUC / CL/F / fold increase in mean AUCall compared to Study Day 1 / AUC(0-t) / Cmax / Tmax: male, Sprague Dawley; for fold increase in mean AUCall compared to Study Day 1: 7 days
Experimental: The purpose of this study was to determine the pharmacokinetic (PK) properties and tolerability of MGBG in rats. Additionally, recovery from any toxic effects was assessed after a seven day non-dosing period.
Three per group of male Sprague Dawley (CD® MS, Charles River) aged 7-9 weeks and weighing 222.7-252.0 g were administered by oral (PO) gavage, twice daily, at 10, 20, or 30 mg/kg/dose (20, 40, or 60 mg/kg/day) for seven consecutive days. A washout period of seven days followed. Collection of approximately 200 μL of whole blood was collected from the tail vein of all animals in Groups 5, 6, and 7 were bled at six (Day 1), seven (Day 7), or one (Days 9 through 15) time point(s), respectively. Whole blood samples were collected in a lithium heparin microtainer and processed to plasma by centrifugation. Plasma was frozen at −70° C. Pharmacokinetic analyses were performed on the individual animal plasma concentration versus time data for MGBG using WinNonlin (linear trapezoidal rule for AUC calculations). Nominal dose values and sampling times were used for calculations. For Study Day 7, the reported values for MGBG concentrations at time zero were used in the calculations of AUC. Study Day 1 disposition parameters were not reported due to insufficient terminal phase data to adequately characterize these parameters.
On Study Day 7, evidence of dose-dependent dispositions for Cl/Fobs and elimination half-life were observed as mean parameter values for Cl/Fobs and elimination half-life increased and decreased, respectively, with increasing dose levels.
Based on the findings of this exploratory study, the no observable adverse effect level (NOAEL) for MGBG administered by PO gavage twice daily for seven consecutive days to male Sprague Dawley rats is 30 mg/kg/dose (60 mg/kg/day).

For `CC(/C=N/NC(=N)N)=N\NC(=N)N` [MGBG, 1,1′[methylethanediylidene]dinitrilodiguanidine], the reduction of edema ([1]; mice, MGBG PO BID) was “efficacious”, the reduction of hyperalgesia ([1]; mice, MGBG PO BID, hot plate paw withdrawal latency) was “efficacious” and the “efficacy at lower doses” value ([1]; murine carrageenan models, 3 mg/kg PO BID and 10 mg/kg PO BID) was “efficacy”. For the same compound, the “increase of systemic exposure (Cmax and AUCall) with increasing dose” value ([2]; in vivo) was “slightly less than dose-proportional”, the “hematology parameters versus control group” value ([2]; in vivo, 60 mg/kg/day) was “lower reticulocyte count and percentage” and the “serum chemistry parameters versus control group” value ([2]; in vivo, 60 mg/kg/day) was “osmolality and electrolyte changes consistent with slight dehydration”. For the same compound, the NOAEL at 7 days ([2]; in vivo, male Sprague Dawley rats, PO gavage twice daily, seven consecutive days, read-out: no observable adverse effect level (NOAEL)) was 60 mg/kg/day, the “systemic exposure, plasma Day 1 and Day 7” value ([2]; in vivo, po) was “systemic exposure to the test article at all time points” and the AUC ([2]; in vivo, po, 20 mg/kg/day) was 7930 ng·h/mL. For the same compound, the CL/F ([2]; in vivo, po, 20 mg/kg/day) was 24.3 mL/min/kg, the “fold increase in mean AUCall compared to Study Day 1” value (from here on “fold increase in mean AUCall”) ([2]; in vivo, po, 20 mg/kg/day) was 3.77 fold and the AUC(0-t) ([2]; in vivo, po, 20 mg/kg/day, AUC0-12) was 773 ng·h/mL. The AUC(0-t) ([2]; in vivo, po, 20 mg/kg/day, AUC0-24) was 1750 ng·h/mL, the Cmax ([2]; in vivo, po, 20 mg/kg/day) was 124 ng/mL and the Tmax ([2]; in vivo, po, 20 mg/kg/day, Tmax) was 10 h. For the same compound, the AUC ([2]; in vivo, po, 40 mg/kg/day) was 13700 ng·h/mL, the CL/F ([2]; in vivo, po, 40 mg/kg/day) was 28.2 mL/min/kg and the “fold increase in mean AUCall” value ([2]; in vivo, po, 40 mg/kg/day) was 4.03 fold. The AUC(0-t) ([2]; in vivo, po, 40 mg/kg/day, AUC0-12) was 1380 ng·h/mL, the AUC(0-t) ([2]; in vivo, po, 40 mg/kg/day, AUC0-24) was 2980 ng·h/mL and the Cmax ([2]; in vivo, po, 40 mg/kg/day) was 175 ng/mL. The Tmax ([2]; in vivo, po, 40 mg/kg/day, Tmax) was 7.33 h, the AUC ([2]; in vivo, po, 60 mg/kg/day) was 17100 ng·h/mL and the CL/F ([2]; in vivo, po, 60 mg/kg/day) was 35.8 mL/min/kg. For the same compound, the “fold increase in mean AUCall” value ([2]; in vivo, po, 60 mg/kg/day) was 3.68 fold, the AUC(0-t) ([2]; in vivo, po, 60 mg/kg/day, AUC0-12) was 2170 ng·h/mL and the AUC(0-t) ([2]; in vivo, po, 60 mg/kg/day, AUC0-24) was 4380 ng·h/mL. The Cmax ([2]; in vivo, po, 60 mg/kg/day) was 296 ng/mL, the Tmax ([2]; in vivo, po, Tmax values over the dose range evaluated) was 3.33 to 14 h and the “gross or microscopic lesions at terminal sacrifice” value ([2]; test article-treated animals) was “No gross or microscopic lesions were observed”.
